Patent US10092595B2, “Compositions and methods for treating inflammatory arthritis” (priority 2009, dated 2018)
Entries after “also recorded” stand apart in the source; their conditions may differ. Square brackets hold non-standard residues; d marks the D form. Peptide text beside a SMILES is read from it. * marks the point of attachment. Nva = CCC[C@H](N)C(=O)O; Cbz = O=C(OCc1ccccc1)*; CH2F = FC*

How the values were obtained:
[1] = RA patients; cited from earlier work
gp130 [2] = assay: Western blot of gp130 expression in MH7A cells; assay type: cell-based; settings: for effect of pre-incubation with inhibitor on As2O3-induced decrease in gp130: NH4Cl 2.5 mM, MG115 10 μM, Z-VAD-FMK 25 μM, As2O3 5 μM
Method: (§1) Western blot analysis was performed (Pang et al., Gastroenterology, 132:1088-103 (2007)). Cell lysis and protein collection was conducted according to standard protocols. Protein samples (typically 30 μg) were separated by sodium dodecyl sulfate-polyacrylamide gel electrophoresis (SDS-PAGE) in 12% resolving gel and electro-transferred to nitrocellulose membranes (400 mA for 2 hours). After blocking with tris-buffered saline-TWEEN (TBS-T) containing 5% non-fat milk at room temperature for 30 minutes, membranes were incubated with the primary antibody and TBS-T with 5% bovine serum albumin at 4° C. overnight. The membranes were then washed thrice with TBS-T, and incubated for 1 hour at room temperature with 1:2000 horseradish peroxidase-conjugated secondary antibodies (Amersham-Pharmacia Biotechnology, Piscataway, N.J., USA). Immunoreactive bands were detected with chemiluminescence using the SuperSignal West Pico Chemiluminescent Substrate (Pierce Chemical Co., Rockford, Ill., USA), and visualized on X-ray films. Densitometric quantification of band signals was performed using ImageJ 1.36b software (National Institutes of Health, USA). All experiments were performed in triplicates.

JNK = assay: Western blot of JNK phosphorylation in MH7A cells; assay type: cell-based
Method: as §1

NFκB = assay: Western blot of NFκB expression in MH7A cells; assay type: cell-based; settings: dose (24 hours) and time (5 μM) dependence
Method: as §1

caspase 3 = assay: Western blot of caspase 3 activation in MH7A cells; assay type: cell-based
Method: as §1

IL-6 receptor α = assay: Western blot of IL-6 receptor α expression in MH7A cells; assay type: cell-based
Method: as §1

gp130 [3] = assay: Immunoprecipitation of gp130 and Western blot with anti-ubiquitin antibodies FK1 and FK2; assay type: cell-based; settings: 100 μM As2O3, 0, 4 or 6 hours; FK2 positive, FK1 negative
Method: Immunoblot analysis was performed with gp130 ubiquitinylation. MH7A cells are incubated with 100 μM As2O3 for 0, 4 or 6 hours. Antibody to gp130 is used for immunoprecipitation (IP) of total cell lysates, followed by Western blot analysis with anti-ubiquitin antibodies FK1 and FK2. IP with non-immune rabbit serum (NIS) serves as control.
Immunoprecipitation was performed by standard procedures (Pang et al., Gastroenterology, 132:1088-103 (2007)). Cells were washed with ice-cold PBS supplemented with 1 mM sodium orthovanadate and Complete protease inhibitor cocktail (Complete; Roche Molecular Biochemicals), and lysed with buffer (50 mM Tris-HCl, pH: 7.5, 100 mM NaCl, 1% Triton X-100, 4 μg/mL aprotinin, 100 μM phenylmethylsulfonyl fluoride, 200 μM sodium orthovanadate, 2 μg/mL leupeptin, 1 mM ditheiothreitol, and 1× Complete) at 4° C. for 15 minutes. Lysates were collected and centrifuged. Proteins were assayed (Bio-Rad Protein Assay Kit, Philadelphia, Pa., USA), and adjusted to 1 μg/μL (typically 800 to 1000 μg). Immunoprecipitation was preformed by incubating protein samples with the appropriate antibodies (typically 4 μg) or control non-immune sera at 4° C. overnight with gentle shaking. […] The immunoprecipitates were then analyzed by Western blotting in triplicates

[4] = oral As2O3; cited from earlier work
MH7A cells [5] = test system: MH7A cells
Method: Cells were maintained in RPMI1640 (Invitrogen, Carlsbad, Calif., USA) supplemented with 10% heat inactivated fetal bovine serum (FBS; Invitrogen) in 5% CO2 at 37° C.
Cellular proliferation was assessed by an MTT assay (GE Healthcare, Piscataway, N.J., USA) (Cheung et al., Cancer Lett., 246:122-8 (2007)). Cells (2×10^4 cells/well in 96-well plates) were incubated overnight before treatment with controls or reagents for 2-6 days. The treated cells were then incubated with the MTT labeling solution (10 μL/well). After 4 hours of incubation, cells were lyzed, and formazan crystals solubilized overnight at 37° C. Formazean signal was detected at 570 nm (μ-Quant™ microplate spectrometer, Bio-Tek Instruments Inc., VT, USA). Data obtained were analyzed by the KC junior software (BLD Science, Garner, N.C., USA).

IL-6 receptor α gene = assay: RT-PCR of IL-6 receptor α gene transcription in MH7A cells; assay type: cell-based; settings: semi-quantitative RT-PCR
Method: (§2) Total RNA was prepared using TRIzol (Invitrogen). Reverse transcription PCR (RT-PCR) was performed (Cheung, et al., Cancer Lett., 246:122-8 (2007)). RNA was reverse transcribed with the Superscript™ III First-Strand Synthesis System (Invitrogen) according to the manufacturer's instructions. Reaction mixes contained 1.2 μL of cDNA, 18 μL of Platinum® PCR Supermix (Invitrogen) and 200 nM of each pair of primers.

GP130 gene = assay: RT-PCR and Q-PCR of gp130 gene transcription in MH7A cells; assay type: cell-based
Method: as §2
Quantitative-RT-PCR (Q-PCR) for GP130 was performed with the Assays-on-Demand™ Gene Expression System (AssayID: Hs00174360_m1, PE Biosystems, Foster City, Calif., USA) according to the manufacturer's instructions. The reaction mix contained 2 μL of cDNA, 10 μL of TaqMan® Universal PCR Master Mix, 1 μL of Assay-on-Demand™ Gene Expression Assay Mix, and RNase-free water to a volume of 20 μL. Q-PCR was performed with the ABI Prism 7700 Sequence Detector (PE Biosystems). […] Real-time PCR amplification data were collected continuously and analyzed with the ABI Prism 7700 Sequence Detector. Relative gene expression to the control calibrator, and normalized to the internal control, was calculated by the ΔΔCT method (ABI user bulletin number 2, PE Biosystem) (Cheung, et al., Cancer Lett., 246:122-8 (2007)). […]

[6] = oral As2O3; cited from earlier work; remark: listed apart in the source
MH7A cells [7] = assay: Annexin V apoptosis assay (flow cytometry); assay type: cell-based; settings: As2O3 5 μM, representative assay
Method: For apoptosis assay, 1×10^6 cells were incubated in 10-cm plates overnight, before treatment with controls or reagents for 24 hours. Cells were then trypsinized, washed twice with ice-cold phosphate buffered saline (PBS), re-suspended in 500 μL of binding buffer, and incubated on ice for 10 minutes with FITC-conjugated annexin-V and propidium iodide (PI) (Immunotech; Fullerton, Calif., USA). Apoptotic cells (annexin-V-positive, PI-negative) were enumerated by flow cytometry in triplicates (Epics, Beckman Coulter, Fullerton, Calif., USA) after appropriate color compensation. Data analysis was performed by the WinMDI 2.8 software (The Scripps Research Institute, La Jolla, Calif., USA).

MH7A cells [8] = assay: Cell cycle analysis by PI staining and flow cytometry; assay type: cell-based; settings: 5 μM As2O3, 24 hours
Method: Cell cycle analysis was performed as described (Pang et al., J. Pathol. 210:19-25, (2006)), Cells were trypsinized, washed twice with ice-cold PBS, re-suspended in 500 μL PBS, and stained with PI for 10 minutes on ice (DNA Prep™, Beckman Coulter). Cell cycle was determined by flow cytometry, and data analyzed by the WinMDI 2.8 software.

IL-6 gene = assay: RT-PCR of IL-6 gene transcription in MH7A cells; assay type: cell-based
Method: as §2

p53 = assay: Western blot of p53 phosphorylation at serine 46 in MH7A cells; assay type: cell-based; settings: 5 μM As2O3

tocilizumab
clinical effect in RA [1]: significant control of symptoms

infliximab
clinical effect in RA [1]: significant improvement in joint inflammation and halts the progression of joint damage

CCC[C@@H](C=O)NC(=O)[C@H](CC(C)C)NC(=O)[C@H](CC(C)C)NC(=O)OCc1ccccc1 [MG115] (Cbz-Leu-Leu-[Nva]-aldehyde)
effect of pre-incubation with inhibitor on As2O3-induced decrease in gp130 (gp130 [2]): had no effect

COC(=O)C[C@H](NC(=O)[C@H](C)NC(=O)[C@@H](NC(=O)OCc1ccccc1)C(C)C)C(=O)CF [Z-VAD-FMK] (Cbz-Val-Ala-Asp(OMe)-CH2F)
effect of pre-incubation with inhibitor on As2O3-induced decrease in gp130 (gp130 [2]): had no effect

Cl.N [NH4Cl, ammonium chloride]
effect of pre-incubation with inhibitor on As2O3-induced decrease in gp130 (gp130 [2]): significantly prevented
effect of inhibitor on As2O3-induced JNK phosphorylation/activation (JNK; SP600125 30 μM, NH4Cl 2.5 mM): almost totally abrogated

Arsenic trioxide [As2O3]
level of NFκB (NFκB): significantly decreased the level of NFκB
activation of caspase 3 (caspase 3): dose and time dependent activation of caspase 3
IL-6 receptor α protein level (IL-6 receptor α): remaining unchanged
gp130 ubiquitination (gp130 [3]): induced mono-ubiquitination of gp130; also recorded: gp130 is mono-ubiquitinated
QT prolongation [4]: minimal QT prolongation
inhibition of growth of MH7A cells (MH7A cells [5]; increasing concentrations, 24, 48 or 72 hours): dose and time dependent inhibition of growth
IC50 (MH7A cells [5]; read-out: 50% inhibitory concentration, growth of MH7A cells, MTT assay, 24, 48 or 72 hours): ~5 µM
gp130 protein level (gp130 [2]; Western blot): dose and time dependent decrease of gp130
IL-6 receptor α gene transcription (IL-6 receptor α gene): no effect on the transcription of both genes
GP130 gene transcription (GP130 gene; real-time quantitative PCR, 5 μM As2O3, 0-24 hours): no effect on GP130 gene transcription
gp130 gene transcription (GP130 gene; semi-quantitative RT-PCR): no effect on the transcription of both genes
efficacy in relapsed acute promyelocytic leukemia [6]: highly efficacious
annexin-V positive, propidium iodide negative (apoptotic) cells (MH7A cells [7]): 38.2%
annexin-V positive, propidium iodide positive (dead) cells (MH7A cells [7]): 5.76%
JNK phosphorylation (JNK; 5 μM As2O3, 0-24 hours): significant increases in JNK phosphorylation
cell cycle arrest (MH7A cells [8]): significant G2M arrest
IL-6 gene transcription (IL-6 gene): did not affect IL-6 gene transcription
p53 phosphorylation at serine 46 (p53): significantly increased p53 phosphorylation at serine 46

IL-6: recombinant human IL-6 (Peprotech)
effect of exogenous IL-6 on proliferation of MH7A cells (MH7A cells [5]; 72 hours): did not increase the proliferation
